Test results published in article PMC3914206.

Tests used:
panel of 442 kinases [1] = molecular target: T1, panel of 442 kinases (Homo sapiens, UniProt P11802); format: binding; settings: Compound Concentration 10 µM
T1 construct: purchased KINOMEscan
Text: (§1) We assessed the selectivity of members of this scaffold using the KINOMEscan methodology across a near comprehensive panel of 442 kinases [[18,27]].

panel of 442 kinases [2] = molecular target: T2, panel of 442 kinases (Homo sapiens, UniProt P36897); format: binding; settings: kinase TGFBR1; compound concentration 10 µM
T2 construct: purchased KINOMEscan
T2 sequence (P36897 34-503): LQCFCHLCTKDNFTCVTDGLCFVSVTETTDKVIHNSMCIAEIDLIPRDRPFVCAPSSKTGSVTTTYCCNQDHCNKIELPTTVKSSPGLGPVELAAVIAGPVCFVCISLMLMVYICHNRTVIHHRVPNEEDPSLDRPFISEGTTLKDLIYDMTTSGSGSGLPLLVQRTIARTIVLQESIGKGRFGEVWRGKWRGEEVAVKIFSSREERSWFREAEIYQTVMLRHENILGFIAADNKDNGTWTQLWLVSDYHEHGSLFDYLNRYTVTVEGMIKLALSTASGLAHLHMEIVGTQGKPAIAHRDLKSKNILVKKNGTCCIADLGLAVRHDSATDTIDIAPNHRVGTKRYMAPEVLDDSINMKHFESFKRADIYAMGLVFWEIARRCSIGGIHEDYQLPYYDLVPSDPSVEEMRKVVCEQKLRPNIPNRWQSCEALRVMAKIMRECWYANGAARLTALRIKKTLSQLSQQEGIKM
Text: as §1

T1 sequence (P11802 whole entry): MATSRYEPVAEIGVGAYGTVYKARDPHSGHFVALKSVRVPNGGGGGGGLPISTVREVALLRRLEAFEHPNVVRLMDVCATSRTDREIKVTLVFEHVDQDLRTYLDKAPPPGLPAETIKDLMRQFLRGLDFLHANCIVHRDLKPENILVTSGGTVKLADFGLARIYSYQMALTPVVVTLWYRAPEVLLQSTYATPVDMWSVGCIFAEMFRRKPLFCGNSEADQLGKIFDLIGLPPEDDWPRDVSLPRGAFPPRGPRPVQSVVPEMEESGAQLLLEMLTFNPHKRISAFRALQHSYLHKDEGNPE

Row | Structure (SMILES) | KINOMEscan: CDK4-cyclinD1 (panel of 442 kinases [1]) | KINOMEscan: CDK4-cyclinD3 (panel of 442 kinases [1]) | % Ctrl, TGFBR1 (panel of 442 kinases [2])
1 | COc1cc(C(=O)N2CCC(N3CCN(C)CC3)CC2)ccc1Nc1ncc2c(n1)N(C)c1ccccc1C(=O)N2C [15 (LRRK2-IN-1)] | 100 | 100 | 100 % Ctrl
2 | COc1cc(C(=O)N2CCC(N3CCN(C)CC3)CC2)ccc1Nc1ncc2c(n1)N1CCc3cccc(c31)C(=O)N2C [Compound 24] | – | – | 100 % Ctrl
3 | COc1cc(C(=O)N2CCC(N3CCN(C)CC3)CC2)ccc1Nc1ncc2c(n1)N(C1CCCC1)c1ccccc1C(=O)N2C [Compound 25, 11-cyclopentyl-2-((2-methoxy-4-(4-(4-methylpiperazin-1-yl)piperidine-1-carbonyl)phenyl)amino)-5-methyl-5H-benzo[e]pyrimido[5,4-b][1,4]diazepin-6(11H)-one] | 100 | 73 | 98 % Ctrl
4 | CCOc1cc(C(=O)N2CCC(N3CCN(C)CC3)CC2)ccc1Nc1ncc2c(n1)N(C1CCCC1)c1ccccc1C(=O)N2C [Compound 26] | 91 | 100 | 100 % Ctrl
